# Measurements taken from US7491533B2, “Polynucleotides encoding an isolated β-islet cell two-pore domain potassium channel” (Metabolex, Inc., priority 2002, dated 2009).
# Target: T1, BIK channels (Homo sapiens, UniProt Q96T55, A277E)
# T1 construct: expressed in transfected cells
# T1 sequence (Q96T55 1-294 isoform Q96T55-3 A277E): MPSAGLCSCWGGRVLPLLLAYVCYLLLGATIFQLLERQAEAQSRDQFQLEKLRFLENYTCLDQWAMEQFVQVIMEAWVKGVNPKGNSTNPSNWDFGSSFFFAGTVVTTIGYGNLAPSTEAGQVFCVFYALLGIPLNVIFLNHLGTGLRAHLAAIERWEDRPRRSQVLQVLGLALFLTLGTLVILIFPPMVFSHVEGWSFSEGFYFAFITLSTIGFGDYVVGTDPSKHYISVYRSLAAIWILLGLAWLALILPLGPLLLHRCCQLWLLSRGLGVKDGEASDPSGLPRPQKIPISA
# Assay: FlexStation / FLIPR Membrane Potential Dye assay in stable HEK293 transfectants
# Format: cell-based
# Experimental: HEK293 cells stably transfected with pcDNA3.1 (circles) or the same vector allowing expression of BIK (squares) or TASK-2 (triangles) were plated in 96 well assay plates 24 h prior to analysis. Cells were incubated in 100 μl of 0.5×FLIPR Membrane Potential Dye (Molecular Devices) for 30 min. Methanadamide dilutions in DMSO were added to the wells by a FlexStation device (Molecular Devices), the fluorescence intensity changes were recorded before, during and after addition of the compound. The fluorescence intensity changes are plotted as the percent increase from the basal value recorded prior to compound addition. The values are the mean and range of duplicate wells. Similar results were obtained in three other independent experiments.
# High level expression of a background/leak potassium channel such as BIK in fibroblasts results in hyperpolarization of the plasma membrane. Further, monitoring the membrane potential of these cells provides an assay for detecting small molecule blockers of BIK. We made stable HEK293 cell lines expressing BIK (and the well characterized background channel TASK2 for comparison) and characterized them using a FLIPR Membrane Potential Dye and FlexStation microplate fluorometer. […] Furthermore, BIK and TASK2 cells display a 3 to 5-fold greater change in fluorescence upon depolarization with 30 mM KCl compared to vector transfected stable cell lines. […]
compound,measurement,setting,value
CCCCC/C=C\C/C=C\C/C=C\C/C=C\CCCC(=O)N[C@H](C)CO [Methanandamide],selectivity of BIK channel inactivation (result in words),"HEK293 stably transfected with pcDNA3.1, BIK or TASK-2, fluorescence change as percent increase from basal",partially selective inactivator of BIK
same,fold greater increase in fluorescence (depolarization) in BIK cells than in TASK2 or vector control cells,"compound at 100 μM, HEK293 cells stably expressing BIK vs TASK2 or vector (pcDNA3.1)",3 fold
